Data as given in the supplement of paper PMC10307832.

Legend:
Test in all cases: relative viability (nuclei count vs DMSO), 5 days (fraction); higher = more cells survive
VX-702 + Alpelisib = compound: NC(=O)c1ccc(N(C(N)=O)c2c(F)cccc2F)nc1-c1ccc(F)cc1F [VX-702] + Cc1nc(NC(=O)N2CCC[C@H]2C(N)=O)sc1-c1ccnc(C(C)(C)C(F)(F)F)c1 [Alpelisib] (partner 2 µM)
Summary of the method: (§1)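 Lung cancer cell lines in 1536-well plates got either a single drug or a fixed anchor-drug dose together with five library-drug doses (not always all listed) in √10 steps, by pin tool, on the day after seeding. Nuclei were counted after 5 days, and relative viability is the treated-to-vehicle ratio of nuclei counts. Values are medians of duplicate plates.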

VX-702 + Vorinostat = compound: NC(=O)c1ccc(N(C(N)=O)c2c(F)cccc2F)nc1-c1ccc(F)cc1F [VX-702] + O=C(CCCCCCC(=O)Nc1ccccc1)NO [Vorinostat] (partner 1 µM)
Summary of the method: as §1

VX-702 + Linsitinib = compound: NC(=O)c1ccc(N(C(N)=O)c2c(F)cccc2F)nc1-c1ccc(F)cc1F [VX-702] + C[C@]1(O)C[C@@H](c2nc(-c3ccc4ccc(-c5ccccc5)nc4c3)c3c(N)nccn32)C1 [Linsitinib] (partner 1 µM)
Summary of the method: as §1

VX-702 + OSI-027 = compound: NC(=O)c1ccc(N(C(N)=O)c2c(F)cccc2F)nc1-c1ccc(F)cc1F [VX-702] + COc1cccc2cc(-c3nc([C@H]4CC[C@H](C(=O)O)CC4)n4ncnc(N)c34)[nH]c12 [OSI-027] (partner 0.5 µM)
Summary of the method: as §1

| Cell Line | relative viability (VX-702 + Alpelisib; first compound 0.02 µM) | relative viability (VX-702 + Alpelisib; first compound 0.2 µM) | relative viability (VX-702 + Alpelisib; first compound 0.6325 µM) | relative viability (VX-702 + Alpelisib; first compound 2 µM) | relative viability (VX-702 + Vorinostat; first compound 0.02 µM) | relative viability (VX-702 + Vorinostat; first compound 0.2 µM) | relative viability (VX-702 + Vorinostat; first compound 0.6325 µM) | relative viability (VX-702 + Vorinostat; first compound 2 µM) | relative viability (VX-702 + Linsitinib; first compound 0.02 µM) | relative viability (VX-702 + Linsitinib; first compound 0.2 µM) | relative viability (VX-702 + Linsitinib; first compound 0.6325 µM) | relative viability (VX-702 + Linsitinib; first compound 2 µM) | relative viability (VX-702 + OSI-027; first compound 0.02 µM) | relative viability (VX-702 + OSI-027; first compound 0.6325 µM) | relative viability (VX-702 + OSI-027; first compound 2 µM) | relative viability (VX-702 + OSI-027; first compound 0.2 µM) |
| --- | --- | --- | --- | --- | --- | --- | --- | --- | --- | --- | --- | --- | --- | --- | --- | --- |
| NCI-H2347 | 1.01 | 1.12 | 1.05 | 1.14 | 0.561 | 0.594 | 0.454 | 0.591 | 0.968 | 0.977 | 0.896 | 0.986 | 0.491 | 0.494 | 0.336 | – |
| NCI-H2405 | 0.672 | 0.766 | 0.774 | 0.949 | 1.1 | 0.909 | 0.972 | 1.1 | 0.914 | 0.981 | 0.896 | 0.982 | 0.677 | 0.544 | 0.668 | 0.641 |
| NCI-H3122 | 0.822 | 0.735 | 0.676 | 0.859 | 1.36 | 1.03 | 1.22 | 1.1 | 1.02 | 1.02 | 0.985 | 1.01 | 0.922 | 0.917 | 1.05 | 0.874 |
| PC-3 [JPC-3] | 1.02 | 1.06 | 1.07 | 1.02 | 0.929 | 0.773 | 0.908 | 0.886 | 0.966 | 1.01 | 1.03 | 1.05 | 0.8 | 0.818 | 0.644 | 0.768 |
| PC-14 | 1.05 | 0.912 | 0.927 | 1.01 | 0.806 | 0.774 | 0.74 | 0.531 | 0.965 | 0.943 | 1.04 | 1.04 | 0.893 | 0.849 | 0.806 | 0.966 |
| RERF-LC-KJ | 0.969 | 0.69 | 0.8 | 0.794 | 0.693 | 0.686 | 0.716 | 0.694 | 0.956 | 0.883 | 0.876 | 0.966 | 0.608 | 0.57 | 0.534 | 0.547 |
| SK-LU-1 | 1.08 | 0.972 | 1.04 | 1.34 | 0.9 | 0.716 | 0.767 | 1.04 | 1.06 | 1.03 | 1.08 | 1.22 | 0.386 | 0.339 | 0.354 | 0.341 |
| SK-MES-1 | 0.739 | 0.822 | 0.853 | 0.918 | 1.09 | 1.08 | 1.06 | 1.11 | 1.06 | 0.997 | 1.04 | 1.1 | 0.669 | 0.584 | 0.542 | 0.666 |
| SW 1573 | 0.789 | 0.64 | 0.759 | 0.652 | 0.937 | 0.793 | 0.707 | 0.8 | 0.918 | 0.737 | 0.647 | 0.659 | 0.715 | 0.504 | 0.482 | 0.636 |
| UMC-11 | 0.954 | 0.973 | 0.955 | 1.29 | 0.339 | 0.293 | 0.353 | 0.376 | 0.949 | 0.985 | 0.851 | 1.08 | 0.482 | 0.458 | 0.533 | 0.446 |
